Patent US20210128554A1, “ANTI-FLAVIVIRIDAE ACTIVITY OF ANTI-RETROVIRAL NON-NUCLEOSIDE (NNRTIS) AND NUCLEOSIDE REVERSE TRANSCRIPTASE INHIBITORS (NNRTIS)” (priority 2016, published 2021)

Test system: Zika virus
Experiment: ZIKV copy numbers released by primary human fetal astrocytes treated with NNRTIs (Real-time Q-RT-PCR)
Format: cell-based
Details: ZIKV 0.1 MOI, 5, 10, and 25 μM at 24, 48, 72 hrs, culture media at 96 hrs
Experimental: FIG. 6 is a graph showing that Zika virus replication is suppressed by antiretroviral HIV-1 non-nucleoside reverse transcriptase inhibitors (NNRTIs) in primary astrocytes: Primary human fetal astrocytes were plated in 6 well tissue culture dishes and infected with ZIKV at 0.1 MOI. At 24, 48, and 72 hrs post-infections, cells were treated with increasing concentrations of anti-retroviral non-nucleoside reverse transcriptase inhibitors Rilpivirine, Efavirenz, and Etravirine at 5, 10, and 25 μM concentrations. Culture media of the infected cells were collected at 96 hrs post-infections and subjected to Real-time Q-RT-PCR for the detection and quantification of ZIKV copy numbers released by infected cells.

SMILES	Zika virus replication (ZIKV copy numbers released by infected cells)
O=C1Nc2ccc(Cl)cc2[C@@](C#CC2CC2)(C(F)(F)F)O1 [Efavirenz]	suppressed
Cc1cc(C#N)cc(C)c1Oc1nc(Nc2ccc(C#N)cc2)nc(N)c1Br [Etravirine]	suppressed
